These results are taken from ChEMBL document CHEMBL1155907, “Structure-activity relationship of flavonoids as influenza virus neuraminidase inhibitors and their in vitro anti-viral activities” (Bioorg Med Chem, 2008).

Data set [1] concerns the target T1, Neuraminidase (Influenza A virus, UniProt B4URF0). Also noted: species or system Influenza A virus (A/Puerto Rico/8/1934(H1N1)).
Data set [2] has as its target T1, Neuraminidase.
Data set [3] concerns the target T1, Neuraminidase. On the set-up: species or system Influenza B virus.
Data set [4] in a line: Cytotoxicity against MDCK cells by MTT assay. The note with it: dog. It counts as cell-based, Canis lupus familiaris.
In data set [5] the test system is Influenza A virus. In words: Antiviral activity against Influenza A virus Jinan/15/90 H3N2 assessed as reduction of virus-induced cytopathic effect. It counts as functional, organism-based. (Protection from cytopathic effect is a common read-out in antiviral testing.)
The nature of data set [6]: Cytotoxicity against MDCK cells assessed as maximal non-cytotoxic concentration by MTT assay. It counts as cell-based, Canis lupus familiaris. The conditions noted are these: dog, read-out: MNCC. A general note: Tetrazolium dyes change colour on reduction, which living cells bring about.
Data set [7] can be described thus: Selectivity index, ratio of CC50 to MDCK cells to IC50 to Influenza A Jinan/15/90 H3N2 virus. It counts as functional.

Some results are limits rather than exact numbers.

T1 sequence (B4URF0 whole entry): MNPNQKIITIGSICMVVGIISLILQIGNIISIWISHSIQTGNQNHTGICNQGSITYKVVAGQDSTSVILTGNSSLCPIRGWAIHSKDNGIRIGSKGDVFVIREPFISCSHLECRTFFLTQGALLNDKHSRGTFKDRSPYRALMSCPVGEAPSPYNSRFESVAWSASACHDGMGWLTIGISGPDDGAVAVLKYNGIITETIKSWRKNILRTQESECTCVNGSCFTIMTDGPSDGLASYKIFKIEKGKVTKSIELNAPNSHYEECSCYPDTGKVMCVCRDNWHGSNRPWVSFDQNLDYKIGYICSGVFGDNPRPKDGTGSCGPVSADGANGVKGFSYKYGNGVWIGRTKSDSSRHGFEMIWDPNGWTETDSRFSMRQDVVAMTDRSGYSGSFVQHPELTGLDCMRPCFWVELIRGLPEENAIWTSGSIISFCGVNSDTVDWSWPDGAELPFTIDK

As a reminder, the IC50 is the concentration at which inhibition is half-maximal. With `O=C1/C(=C\c2ccccc2)Oc2cc(O)ccc21`, the IC50 in data set [1] stood at 72 µM; in data set [2] it was 73.3 µM; in data set [3] it was 86.6 µM.
Broadly, the CC50 is the concentration at which the toxic effect on the cells reaches its halfway point. High values mean better tolerance by the cells, low ones harm at low concentration. With `O=c1cc(-c2ccc(O)c(O)c2)oc2cc(O[C@@H]3O[C@H](CO)[C@@H](O)[C@H](O)[C@H]3O)cc(O)c12` [GALUTEOLIN], the IC50 in data set [1] was 47.4 µM; in data set [5], above 1120 µM; in data set [2], 52.2 µM; in data set [3], 58.6 µM. This molecule also returned a CC50 in data set [4] above 1120 µM. Moreover, the MNTC in data set [6] is above 1120 µM.
With `COc1c(O)cc2oc(-c3ccc(O)cc3)cc(=O)c2c1O` [HISPIDULIN], the IC50 in data set [1] turned out to be 46.3 µM; in data set [5], 24.7 µM; in data set [2], 26 µM; in data set [3] it was 33.2 µM. Besides, the CC50 in data set [4] worked out at 172 µM. Besides, the “Ratio CC50/IC50” value in data set [7] is 6.98. In addition, the MNTC in data set [6] was found to be 24.7 µM.
In the case of `COc1ccc(-c2coc3cc(O)ccc3c2=O)cc1` [FORMONONETIN], the half-maximal inhibitory concentration (IC50) in data set [1], in data set [2] and in data set [3] was above 100 µM throughout.
As to `O=c1cc(-c2ccc(O)cc2)oc2cc(O)cc(O)c12` [APIGENIN], the IC50 in data set [1] came out at 31.6 µM; in data set [5], 4.74 µM; in data set [2] it was 28.9 µM; in data set [3], 45.7 µM. This molecule showed a CC50 in data set [4] of 39.6 µM. Moreover, the “Ratio CC50/IC50” value in data set [7] is listed as 8.35. Besides, in data set [6], the MNTC turned out to be 7.63 µM.
Regarding `O=c1c(O)c(-c2ccc(O)cc2)oc2cc(O)cc(O)c12` [KAEMPFEROL], the IC50 in data set [1] stood at 58.6 µM; in data set [2] it was 38.1 µM; in data set [3], 46.4 µM.
Take `Oc1cc(O)c2c(c1)O[C@@H](c1ccc(O)c(O)c1)[C@@H](O)C2` [(+)-EPICATECHIN]: the IC50 in data set [1], in data set [2] and in data set [3] was above 100 µM throughout.
`CCC(CC)O[C@@H]1C=C(C(=O)O)C[C@H](N)[C@H]1NC(C)=O` [OSELTAMIVIR CARBOXYLATE]: in data set [4], half-maximal cytotoxicity (CC50) was put at 17.1 µM. For the same molecule, in data set [5], the IC50 is 0.15 µM. For the same molecule, the MNTC in data set [6] was 1.02 µM.
Consider `Oc1cc(O)c2c(c1)O[C@H](c1ccc(O)c(O)c1)[C@@H](O)C2` [CATECHIN], for which the IC50 in data set [1], in data set [2] and in data set [3] was above 100 µM in each case.
Regarding `O=C1/C(=C/c2ccc(O)c(O)c2)Oc2cc(O)ccc21` [SULFURETIN], the IC50 in data set [1] was 29.6 µM; in data set [5] it was above 9.15 µM; in data set [2] it was 51.2 µM; in data set [3], 36.2 µM. Half-maximal cytotoxicity in data set [4] (CC50) was put at 27.4 µM. In addition, the MNTC in data set [6] was determined as 9.15 µM.
Take `O=c1c(-c2ccc(O[C@@H]3O[C@H](CO)[C@@H](O)[C@H](O)[C@H]3O)cc2)coc2cc(O)cc(O)c12` [SOPHORICOSIDE]: the IC50 in data set [1], in data set [2] and in data set [3] was above 100 µM each time.
With `O=c1c(O)c(-c2ccc(O)c(O)c2)oc2cc(O)cc(O)c12` [QUERCETIN], the IC50 in data set [1] is 58.4 µM; in data set [2], 87.6 µM; in data set [3] it was 67.5 µM.
For `C[C@@H]1O[C@@H](OC[C@H]2O[C@@H](Oc3c(-c4ccc(O)c(O)c4)oc4cc(O)cc(O)c4c3=O)[C@H](O)[C@@H](O)[C@@H]2O)[C@H](O)[C@H](O)[C@H]1O` [RUTIN], in that order: 52.2 µM, 87.7 µM and above 100 µM.
In the same order, the values of `COc1ccc([C@@H]2CC(=O)c3c(O)cc(O[C@@H]4O[C@H](CO[C@@H]5O[C@@H](C)[C@H](O)[C@@H](O)[C@H]5O)[C@@H](O)[C@H](O)[C@H]4O)cc3O2)cc1O` [HESPERIDIN] are above 100 µM, above 100 µM and above 100 µM.
For `O=C1C[C@@H](c2ccc(O[C@@H]3O[C@H](CO)[C@@H](O)[C@H](O)[C@H]3O)cc2)Oc2cc(O)ccc21` [LIQUIRITIN], in that order: above 100 µM, above 100 µM and above 100 µM.
In the case of `O=C1/C(=C\c2ccc(O)cc2)Oc2cc(O)cc(O)c21`, the IC50 is 25.6 µM in data set [1], above 741 µM in data set [5], 22.3 µM in data set [2] and 25.4 µM in data set [3]. The molecule further yielded a CC50 in data set [4] above 741 µM. Moreover, the MNTC in data set [6] was above 741 µM.
As for `COc1cc(O)c2c(=O)c(O)c(-c3ccc(O)cc3)oc2c1` [RHAMNOCITRIN], the IC50 in data set [1] amounted to 51.5 µM; in data set [2], 83.9 µM; in data set [3], 62 µM.
In the case of `O=c1c(-c2ccc(O)cc2)coc2cc(O)ccc12` [DAIDZEIN], the IC50 in data set [1] is 37.1 µM; in data set [5] it was above 787 µM; in data set [2], 26.6 µM; in data set [3] it was 46.8 µM. The CC50 in data set [4] was above 787 µM. In data set [6], the MNTC is above 787 µM.
In the case of `O=c1cc(-c2ccc(O)c(O)c2)oc2cc(O)cc(O)c12` [LUTEOLIN], the IC50 in data set [1] came to 33.7 µM; in data set [5], 6.82 µM; in data set [2], 32.6 µM; in data set [3], 53.3 µM. Also, it took 12.4 µM to reach half-maximal cytotoxicity in data set [4] (CC50). In addition, the “Ratio CC50/IC50” value in data set [7] amounted to 1.82. Further, the MNTC in data set [6] is 7.2 µM.
As for `NC(=O)c1ncn([C@@H]2O[C@H](CO)[C@@H](O)[C@H]2O)n1` [RIBAVIRIN], in data set [4], the CC50 was above 512 µM. Further, in data set [7], the “Ratio CC50/IC50” value is above 19.98. In addition, the IC50 in data set [5] is 25.6 µM.
With `O=C1C[C@@H](c2ccc(O)cc2)Oc2cc(O)cc(O)c21` [NARINGENIN], the IC50 in data set [1], in data set [2] and in data set [3] was above 100 µM in each case.
For `O=c1cc(-c2ccccc2)oc2cc(O)cc(O)c12` [CHRYSIN], the IC50 turned out to be 45.7 µM in data set [1], 33.4 µM in data set [2] and 52.9 µM in data set [3].
Regarding `O=C1/C(=C\c2ccc(O)cc2)Oc2cc(O)ccc21`, the IC50 was 22 µM in data set [1], 15.7 µM in data set [5], 22.1 µM in data set [2] and 22.9 µM in data set [3]. The CC50 in data set [4] came out at 152 µM. Besides, in data set [7], the “Ratio CC50/IC50” value is recorded as 9.64. Also, in data set [6], the MNTC amounted to 87.5 µM.
On to `O=c1cc(-c2ccc(O)cc2)oc2c([C@@H]3O[C@H](CO)[C@@H](O)[C@H](O)[C@H]3O)c(O)cc(O)c12` [VITEXIN], for which the IC50 was determined as 46.5 µM in data set [1], 45.1 µM in data set [2] and 49.6 µM in data set [3].
For `O=c1c(O)c(-c2cc(O)c(O)c(O)c2)oc2cc(O)cc(O)c12` [MYRICETIN], in that order: 82.6 µM, 46.2 µM and 75.4 µM.
In the same order, the values of `O=C(O)[C@H]1O[C@@H](Oc2cc3oc(-c4ccc(O)cc4)cc(=O)c3c(O)c2O)[C@H](O)[C@@H](O)[C@@H]1O` [SCUTELLARIN] are 50.6 µM, 47.3 µM and 59.9 µM.
For `O=c1c(-c2ccc(O)cc2)coc2cc(O)cc(O)c12` [GENISTEIN], in that order: 77.1 µM, 134 µM and 83.3 µM.
